ChEMBL document CHEMBL2074440, “Molecular cloning, chromosomal localization, and functional characterization of a human liver Na+/bile acid cotransporter” (J Clin Invest, 1994)

Assays:
Parameters in all cases: scale not given: the % may be the effect or the level left
[1] = target: T1, Hepatic sodium/bile acid cotransporter (Homo sapiens, UniProt Q14973); assay: TP_TRANSPORTER: inhibition of Taurocholate uptake (Taurochorate: 10 uM, TCDC: 100 uM) in Xenopus laevis oocytes; assay type: functional, cell-based; conditions: oocyte
T1 sequence (Q14973 whole entry): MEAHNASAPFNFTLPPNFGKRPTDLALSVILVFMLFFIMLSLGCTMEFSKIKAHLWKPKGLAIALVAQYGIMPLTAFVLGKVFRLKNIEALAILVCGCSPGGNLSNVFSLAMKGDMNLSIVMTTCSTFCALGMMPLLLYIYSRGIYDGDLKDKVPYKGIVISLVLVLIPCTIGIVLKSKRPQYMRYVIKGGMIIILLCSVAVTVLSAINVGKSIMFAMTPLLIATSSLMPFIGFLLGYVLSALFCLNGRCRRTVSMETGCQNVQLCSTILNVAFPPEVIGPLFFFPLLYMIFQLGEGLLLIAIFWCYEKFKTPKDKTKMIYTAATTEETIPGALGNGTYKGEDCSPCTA

[2] = target: T1, Hepatic sodium/bile acid cotransporter; assay: TP_TRANSPORTER: inhibition of Taurocholate uptake (Taurochorate: 10 uM, GCDCA: 100 uM) in Xenopus laevis oocytes; assay type: functional, cell-based, Oocyte; conditions: probe taurocholate (10 uM), read-out: Activity
[3] = target: T1, Hepatic sodium/bile acid cotransporter; assay: TP_TRANSPORTER: inhibition of Taurocholate uptake (Taurochorate: 10 uM, GC: 100 uM) in Xenopus laevis oocytes; assay type: functional, cell-based; conditions: oocyte
[4] = target: T1, Hepatic sodium/bile acid cotransporter; assay: TP_TRANSPORTER: inhibition of Taurocholate uptake (Taurochorate: 10 uM, TUDC: 100 uM) in Xenopus laevis oocytes; assay type: functional, cell-based; conditions: oocyte
[5] = target: T1, Hepatic sodium/bile acid cotransporter; assay: TP_TRANSPORTER: inhibition of Taurocholate uptake (Taurochorate: 10 uM, CDCA: 100 uM) in Xenopus laevis oocytes; assay type: functional, cell-based; conditions: oocyte
[6] = target: T1, Hepatic sodium/bile acid cotransporter; assay: TP_TRANSPORTER: inhibition of Taurocholate uptake (Taurochorate: 10 uM, TDCA: 100 uM) in Xenopus laevis oocytes; assay type: functional, cell-based; conditions: oocyte
[7] = target: T1, Hepatic sodium/bile acid cotransporter; assay: TP_TRANSPORTER: inhibition of Taurocholate uptake (Taurochorate: 10 uM, BSP: 100 uM) in Xenopus laevis oocytes; assay type: functional, cell-based, Oocyte; conditions: probe taurocholate (10 uM), read-out: Activity
[8] = target: T1, Hepatic sodium/bile acid cotransporter; assay: TP_TRANSPORTER: inhibition of Taurocholate uptake (Taurochorate: 10 uM, Taurolithocholate: 100 uM) in Xenopus laevis oocytes; assay type: functional, cell-based, Oocyte; conditions: probe taurocholate (10 uM), read-out: Activity
[9] = target: T1, Hepatic sodium/bile acid cotransporter; assay: TP_TRANSPORTER: inhibition of Taurocholate uptake (Taurochorate: 10 uM, Bumetanide: 500 uM) in Xenopus laevis oocytes; assay type: functional, cell-based; conditions: oocyte
[10] = target: T1, Hepatic sodium/bile acid cotransporter; assay: TP_TRANSPORTER: inhibition of Taurocholate uptake (Taurochorate: 10 uM, Lithocholate: 100 uM) in Xenopus laevis oocytes; assay type: functional, cell-based, Oocyte; conditions: probe taurocholate (10 uM), read-out: Activity
[11] = target: T1, Hepatic sodium/bile acid cotransporter; assay: TP_TRANSPORTER: inhibition of Taurocholate uptake (Taurochorate: 10 uM, UDCA: 100 uM) in Xenopus laevis oocytes; assay type: functional, cell-based, Oocyte; conditions: probe taurocholate (10 uM), read-out: Activity
[12] = target: T1, Hepatic sodium/bile acid cotransporter; assay: TP_TRANSPORTER: inhibition of Taurocholate uptake (Taurochorate: 10 uM, Glycholithocholate: 100 uM) in Xenopus laevis oocytes; assay type: functional, cell-based, Oocyte; conditions: probe taurocholate (10 uM), read-out: Activity

Compound `C[C@H](CCC(=O)NCCS(=O)(=O)O)[C@H]1CC[C@H]2[C@@H]3[C@H](O)C[C@@H]4C[C@H](O)CC[C@]4(C)[C@H]3CC[C@]12C` [TAUROCHENODEOXYCHOLATE] has an Activity [1] of 19%.

With `C[C@H](CCC(=O)NCC(=O)O)[C@H]1CC[C@H]2[C@@H]3[C@H](O)C[C@@H]4C[C@H](O)CC[C@]4(C)[C@H]3CC[C@]12C` [GLYCOCHENODEOXYCHOLATE] the activity at 100 µM [2] was 14%.

Compound `C[C@H](CCC(=O)NCC(=O)O)[C@H]1CC[C@H]2[C@@H]3[C@H](O)C[C@@H]4C[C@H](O)CC[C@]4(C)[C@H]3C[C@H](O)[C@]12C` [GLYCOCHOLIC ACID] has an Activity [3] of 44%.

Work on `C[C@H](CCC(=O)NCCS(=O)(=O)O)[C@H]1CC[C@H]2[C@@H]3[C@@H](O)C[C@@H]4C[C@H](O)CC[C@]4(C)[C@H]3CC[C@]12C` [TAURURSODIOL] yielded an Activity [4] of 8%.

In the case of `C[C@H](CCC(=O)O)[C@H]1CC[C@H]2[C@@H]3[C@H](O)C[C@@H]4C[C@H](O)CC[C@]4(C)[C@H]3CC[C@]12C` [CHENODIOL], the Activity [5] was 13%.

Work on `C[C@H](CCC(=O)NCCS(=O)(=O)O)[C@H]1CC[C@H]2[C@@H]3CC[C@@H]4C[C@H](O)CC[C@]4(C)[C@H]3C[C@H](O)[C@]12C` [TAURODEOXYCHOLIC ACID] yielded an Activity [6] of 10%.

Work on `O=C1OC(c2ccc(O)c(S(=O)(=O)O)c2)(c2ccc(O)c(S(=O)(=O)O)c2)c2c(Br)c(Br)c(Br)c(Br)c21` [SULFOBROMOPHTHALEIN SODIUM] yielded an activity at 100 µM [7] of 41%.

`C[C@H](CCC(=O)NCCS(=O)(=O)O)[C@H]1CC[C@H]2[C@@H]3CC[C@@H]4C[C@H](O)CC[C@]4(C)[C@H]3CC[C@]12C` [TAUROLITHOCHOLIC ACID] showed an activity at 100 µM [8] of 33%.

Compound `CCCCNc1cc(C(=O)O)cc(S(N)(=O)=O)c1Oc1ccccc1` [BUMETANIDE] has an Activity [9] of 71%.

In the case of `C[C@H](CCC(=O)O)[C@H]1CC[C@H]2[C@@H]3CC[C@@H]4C[C@H](O)CC[C@]4(C)[C@H]3CC[C@]12C` [LITHOCHOLIC ACID], the activity at 100 µM [10] was 63%.

For `C[C@H](CCC(=O)O)[C@H]1CC[C@H]2[C@@H]3[C@@H](O)C[C@@H]4C[C@H](O)CC[C@]4(C)[C@H]3CC[C@]12C` [URSODIOL], the activity at 100 µM [11] was 45%.

In the case of `C[C@H](CCC(=O)NCC(=O)O)[C@H]1CC[C@H]2[C@@H]3CC[C@@H]4C[C@H](O)CC[C@]4(C)[C@H]3CC[C@]12C` [LITHOGLYCOCHOLATE], the activity at 100 µM [12] was 24%.
